Measured values taken from patent US20260325661A1, “ANTIBODY-CONJUGATED IMMUNO-ACTIVATING SMALL MOLECULE COMPOUND, AND USE” (SHENZHEN CONJUGENIX PHARMACEUTICAL TECHNOLOGY CO., LTD, priority 2023, published 2026).

Test system: human peripheral blood mononuclear cells (PBMCs)
Test: ELISA assay of immunocyte activator: induction of IFN-γ in human PBMCs
Type: cell-based
Settings: 24 h, 37 °C, Note a: sample pretreated with human liver microsomal enzyme, 2 h, read-out: EC50 IFN-γ ratio (inducing human PBMCs to produce IFN-γ)
Experimental: The immune activity of each compound is represented by the function of inducing human peripheral blood mononuclear cells (PBMCs) to produce the immune cytokine IFN-γ by, and the EC50 values thereof are shown in Table 3.
• 1) Peripheral blood samples from healthy human volunteer were collected into heparin anticoagulant tubes to reach 5 mL of fresh blood, and PBS was added at a ratio of 1:1 to dilute the blood (2 mL+2 mL in conventional blood collection tubes). • 2) 5 mL of lymphocyte separation medium was put in a 15 mL sterile centrifuge tube for use. • 3) The diluted blood was aspirated and slowly added from 1 cm above the separation medium along the tube wall, so that the diluted blood overlaid the separation medium and formed a distinct interface therewith. • 4) The centrifuge tube was centrifuged at 2000 rpm at room temperature for 20 min. Now five layers formed in the centrifuge tube: the top layer was plasma layer, and the layer between the plasma layer and the lymphocyte separation medium was the lymphocyte layer as a white film. • 5) The mononuclear cell layer as a white film in the middle was aspirated carefully and mononuclear cells were aspirated as many as possible. The mononuclear cells were washed by more than 5 volumes of PBS twice, and each time, the mononuclear cells were centrifuged at 1500 rpm for 10 min. • 6) The supernatant was removed, then 1 mL of 1640 medium was added and mixed uniformly. A small amount of the mixture was taken for cell counting.
The prepared PBMCs were plated in a 96-well plate (Costar, 3894) (2×10^5 cells per well). Each compound in Table 3 was taken and added into the wells with plated cells at ten concentrations with uniform gradient distribution (0.0001-10 μM, diluted with […] medium containing […]).

Row | SMILES | EC50 [nM]
1 | C=C(CN1CCC(Cn2c(=O)n(C(=O)NCCNC(=O)OCc3ccc(NC(=O)[C@H](CCCNC(N)=O)NC(=O)[C@@H](NC(=O)CCOCCOCCOCCOCCNC(=O)CCC(=O)N4Cc5ccccc5C#Cc5ccccc54)C(C)C)cc3)c3c(N)nc(O[C@@H](C)CCC)nc32)CC1)C(=O)OCC [Compound K51] | 2
2 | C=C(CN1CCC(Cn2c(=O)n(C(=O)NCCNC(=O)OCc3ccc(NC(=O)[C@H](CCCNC(N)=O)NC(=O)[C@@H](NC(=O)CCOCCOCCOCCOCCNC(=O)CCC(=O)N4Cc5ccccc5C#Cc5ccccc54)C(C)C)cc3)c3c(N)nc(OCCCC)nc32)CC1)C(=O)OCC [Compound K52] | 120
3 | C=C(CN1CCC(n2cc(Cn3c(=O)n(COC(=O)OCCOCCOCCOCCNC(=O)CCC(=O)N4Cc5ccccc5C#Cc5ccccc54)c4c(N)nc(O[C@@H](C)CCC)nc43)nn2)CC1)C(=O)OCC [Compound K55] | 21
4 | CCC[C@H](C)Oc1nc(N)c2c(n1)n(CC1CCN(C(=O)/C=C/C(=O)c3ccc(OC)cc3)CC1)c(=O)n2C(=O)NCCNC(=O)OCc1ccc(NC(=O)[C@H](CCCNC(N)=O)NC(=O)[C@@H](NC(=O)CCOCCOCCOCCOCCNC(=O)CCC(=O)N2Cc3ccccc3C#Cc3ccccc32)C(C)C)cc1 [Compound K57] | 3
5 | CCCCOc1nc(N)c2c(n1)n(CC1CCN(C(=O)/C=C/C(=O)c3ccc(OC)cc3)CC1)c(=O)n2C(=O)NCCNC(=O)OCc1ccc(NC(=O)[C@H](CCCNC(N)=O)NC(=O)[C@@H](NC(=O)CCOCCOCCOCCOCCNC(=O)CCC(=O)N2Cc3ccccc3C#Cc3ccccc32)C(C)C)cc1 [Compound K58] | 9
6 | C=C(CC)C(=O)c1ccc(OCC(=O)NCc2ccc(Cn3c(=O)n(COC(=O)OCc4ccc(NC(=O)[C@H](C)NC(=O)[C@@H](NC(=O)CCOCCOCCOCCOCCNC(=O)CCC(=O)N5Cc6ccccc6C#Cc6ccccc65)C(C)C)cc4)c4c(N)nc(OCCOC)nc43)cc2)c(Cl)c1Cl [Compound K60] | 90

Same assay, conditions: 24 h, 37 °C; no pretreatment marked; listed as GY115, 1440 min; read-out: EC50 IFN-γ ratio (inducing human PBMCs to produce IFN-γ)

Row | SMILES | EC50 [nM]
7 | C#CCCCCC(NC(=O)CCC(=O)NCc1ccc(Cn2c(=O)[nH]c3c(N)nc(OCCOC)nc32)cc1)C(=O)O (stereo not shown) [SZU-115, reference compound] | 300

Same assay, conditions: 24 h, 37 °C; no pretreatment marked; read-out: EC50 IFN-γ ratio (inducing human PBMCs to produce IFN-γ)

Row | SMILES | EC50 [nM]
8 | CCCCOc1nc(N)c2nc(O)n(Cc3cn(CCOCCOCCOCCN=[N+]=[N-])nn3)c2n1 [GY155, reference compound] | 330
9 | COCCOc1nc(N)c2[nH]c(=O)n(Cc3ccc(CNC(=O)CCC(=O)O)cc3)c2n1 [SZU-101, reference compound] | 500

Same assay, conditions: Homo sapiens, PBMC, 24 h, 37 °C, Note a: sample pretreated with human liver microsomal enzyme, 2 h, read-out: EC50 IFN-γ ratio (inducing human PBMCs to produce IFN-γ)

Row | SMILES | EC50 [nM]
10 | C=C(CN(C[C@H](C)c1ccc(-c2c(O)cc(C)c3[nH]c(=O)c4sccc4c23)cc1)C(=O)OCc1ccc(NC(=O)[C@H](CCCNC(N)=O)NC(=O)[C@@H](NC(=O)CCOCCOCCOCCOCCN2C(=O)C=CC2=O)C(C)C)cc1)C(=O)N1CCC(n2cc(Cn3c(=O)n(C(=O)N4CCN(C)CC4)c4c(N)nc(OCCCC)nc43)nn2)CC1 [Compound K62] | 10
11 | CCC[C@H](C)Oc1nc(N)c2c(n1)n(CC1CC[N+]([O-])(CCO)CC1)c(=O)n2C(=O)NCCNC(=O)OCc1ccc(NC(=O)[C@H](CCCNC(N)=O)NC(=O)[C@@H](NC(=O)CCOCCOCCOCCOCCNC(=O)CCC(=O)N2Cc3ccccc3C#Cc3ccccc32)C(C)C)cc1 (stereo partly shown) [Compound K63] | 80

Same assay, conditions: Homo sapiens, PBMC, 24 h, 37 °C, no pretreatment marked, read-out: EC50 IFN-γ ratio (inducing human PBMCs to produce IFN-γ)

Row | SMILES | EC50 [nM]
12 | C=C(CN1CCC(n2cc(Cn3c(=O)[nH]c4c(N)nc(O[C@@H](C)CCC)nc43)nn2)CC1)C(=O)NCCOCCOCCOCCOCCNC(=O)CCC(=O)N1Cc2ccccc2C#Cc2ccccc21 [Compound K54] | 18
13 | C=C(CN(CCCCc1cn(CCOCCOCCOCCn2cc(Cn3c(=O)[nH]c4c(N)nc(OCCCC)nc43)nn2)nn1)C[C@H](C)c1ccc(-c2c(O)cc(C)c3[nH]c(=O)c4sccc4c23)cc1)C(=O)NCCCCCCNC(=O)[C@@H](CCCCn1cc(COCCOCCOCCN=C=S)nn1)NC(=O)CCC(=O)NCc1ccc(Cn2c(=O)[nH]c3c(N)nc(OCCOC)nc32)cc1 [Compound K64] | 10
14 | C#CCn1c(=O)[nH]c2c(N)nc(OCCCC)nc21 [GY100, reference compound] | 110
15 | C#CCCCn1c(=O)[nH]c2c(N)nc(OCCCC)nc21 [GY121, reference compound] | 50
16 | CCC[C@H](C)Oc1nc(N)c2[nH]c(=O)n(Cc3cn(C4CCNCC4)nn3)c2n1 [GY228] | 54
17 | C=C(CN1CCC(n2cc(Cn3c(=O)[nH]c4c(N)nc(O[C@@H](C)CCC)nc43)nn2)CC1)C(=O)OCC [GY229] | 28
18 | C=C(CN1CCC(n2cc(Cn3c(=O)[nH]c4c(N)nc(O[C@@H](C)CCC)nc43)nn2)CC1)C(=O)O [GY300] | 31
19 | CCCCOc1nc(N)c2[nH]c(=O)n(CCCc3cn(CCOCCOCCOCC(=O)OCC)nn3)c2n1 [GY1401] | 2
20 | CCCCOc1nc(N)c2[nH]c(=O)n(Cc3ccc(NC(=S)Nc4sc5c(c4C(=O)OCC)CCCC5)cc3)c2n1 [KJ005] | 370
21 | CCCCOc1nc(N)c2[nH]c(=O)n(Cc3ccc(NC(=S)Nc4sc5c(c4C(=O)O)CCCC5)cc3)c2n1 [KJ006] | 290
22 | CCC[C@H](C)Oc1nc(N)c2[nH]c(=O)n(CC3CCNCC3)c2n1 [KJ-1b, reference compound] | 18
23 | CCC[C@H](C)Oc1nc(N)c2[nH]c(=O)n(CC3CCN(CCO)CC3)c2n1 [KJ-3b, reference compound] | 210
24 | CCC[C@H](C)Oc1nc(N)c2[nH]c(=O)n(CC3CC[N+]([O-])(CCO)CC3)c2n1 (stereo partly shown) [KJ-3b-O] | 90
25 | COCCOc1nc(N)c2[nH]c(=O)n(Cc3ccc(CNC(=O)CCc4cn(CCOCCOCCOCCNC(=O)CCN5C(=O)C=CC5=O)nn4)cc3)c2n1 [KJ-008] | 7
26 | CCCCOc1nc(N)c2[nH]c(=O)n(Cc3cn(CCN)nn3)c2n1 [KJ-032] | 110
27 | C=C(CN1CCC(Cn2c(=O)[nH]c3c(N)nc(O[C@@H](C)CCC)nc32)CC1)C(=O)OCC [KJ-096] | 3
28 | C=C(CN1CCC(Cn2c(=O)[nH]c3c(N)nc(O[C@@H](C)CCC)nc32)CC1)C(=O)O [KJ-097] | 1
29 | C=C(CN1CCC(Cn2c(=O)[nH]c3c(N)nc(OCCCC)nc32)CC1)C(=O)OCC [KJ-098] | 310
30 | C=C(CN1CCC(Cn2c(=O)[nH]c3c(N)nc(OCCCC)nc32)CC1)C(=O)O [KJ-099] | 420
31 | CCC[C@H](C)Oc1nc(N)c2[nH]c(=O)n(CC3CCN(C(=O)/C=C/C(=O)c4ccc(OC)cc4)CC3)c2n1 [KJ-102] | 3
32 | CCCCOc1nc(N)c2[nH]c(=O)n(CC3CCN(C(=O)/C=C/C(=O)c4ccc(OC)cc4)CC3)c2n1 [KJ-104] | 9
33 | C=C(CC(=O)O)C(=O)NCc1ccc(Cn2c(=O)[nH]c3c(N)nc(OCCOC)nc32)cc1 [KJ-138] | 50
34 | CCCCOc1nc(N)c2[nH]cc(Cc3ccc4c(c3)CNCC4)c2n1 [PMQ-1, reference compound] | 320
35 | C=C(CC)C(=O)c1ccc(OCC(=O)NCc2ccc(Cn3c(=O)[nH]c4c(N)nc(OCCOC)nc43)cc2)c(Cl)c1Cl [SZU-103, reference compound] | 100
36 | C#CCCC(=O)NCc1ccc(Cn2c(=O)[nH]c3c(N)nc(OCCOC)nc32)cc1 [SZU-136, reference compound] | 370
37 | COCCOc1nc(N)c2[nH]c(=O)n(Cc3ccc(CNC(=O)CCC(=O)NC(CCCCc4cn(CCOCCOCCOc5c(OC)cc(/C=C/C(=O)N6CCC=CC6=O)cc5OC)nn4)C(=O)O)cc3)c2n1 (stereo not shown) [SZU-191] | 100
38 | C=C(CC(=O)OC)C(=O)NCc1ccc(Cn2c(=O)[nH]c3c(N)nc(OCCOC)nc32)cc1 [SZU-275] | 1

Same assay, conditions: Homo sapiens, PBMC, 24 h, pH 5, 24 h, 37 °C; Note d: sample pretreated by hydrolysis, acetate buffer pH 5, 37 °C, 72 h; read-out: EC50 IFN-γ ratio (inducing human PBMCs to produce IFN-γ)

Row | SMILES | EC50 [nM]
39 | C=CCNC(=S)NCC(=O)n1c(=O)n(Cc2ccc(CNC(=O)CCc3cn(CCOCCOCCOCCNC(=O)CCN4C(=O)C=CC4=O)nn3)cc2)c2nc(OCCOC)nc(N)c21 [Compound K67] | 260

Same assay, conditions: Homo sapiens, PBMC, 24 h, pH 6, 24 h, 37 °C, Note b: sample pretreated with equimolar glutathione, PBS pH 6, 37 °C, read-out: EC50 IFN-γ ratio (inducing human PBMCs to produce IFN-γ)

Row | SMILES | EC50 [nM]
40 | C=C(CN1CCN(C(=O)n2c(=O)n(CCCc3cn(CCOCCOCCOCC(=O)OCC)nn3)c3nc(OCCCC)nc(N)c32)CC1)C(=O)NCCOCCOCCOCCOCCNC(=O)CCC(=O)N1Cc2ccccc2C#Cc2ccccc21 [Compound K61] | 2
